In ChEMBL document CHEMBL1201862, “PubChem BioAssay data set” (2004):
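Step 1: Grow cells in 96-well plates. Step 2: Expose to compound for 48 hours at 5 concentrations. Step 3: Interpolate endpoints linearly; if unreached, use highest concentration. The concentration for 50% growth inhibition is given as GI50.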 Active and inactive are the calls of the source. Cut-off read from the data, not from the text of the source: active = GI50 up to about 1.1 µM and inactive = higher.

Key:
Test in all cases: DTP human tumour cell line panel, 48 h
IGROV-1 = system: IGROV-1
NCI-H226 = system: NCI-H226
Malme-3M = system: Malme-3M
K562 = system: K562
NCI-H522 = system: NCI-H522
SK-MEL-5 = system: SK-MEL-5
OVCAR-3 = system: OVCAR-3
U-251 = system: U-251
M14 = system: M14
SW-620 = system: SW-620
786-0 = system: 786-0
LOX IMVI = system: LOX IMVI
SF-268 = system: SF-268
NCI-H23 = system: NCI-H23
MOLT-4 = system: MOLT-4
SF-295 = system: SF-295
T47D = system: T47D
MDA-MB-231 = system: MDA-MB-231
Hs-578T = system: Hs-578T

Compound | GI50 (IGROV-1) | GI50 (NCI-H226) | GI50 (Malme-3M) | GI50 (K562) | GI50 (NCI-H522) | GI50 (SK-MEL-5) | GI50 (OVCAR-3) | GI50 (U-251) | GI50 (M14) | GI50 (SW-620) | GI50 (786-0) | GI50 (LOX IMVI) | GI50 (SF-268) | GI50 (NCI-H23) | GI50 (MOLT-4) | GI50 (SF-295) | GI50 (T47D) | GI50 (MDA-MB-231) | GI50 (Hs-578T)
CC1=C(c2cc(C(=O)Nc3ccc(Cl)c(Cl)c3)nc(N)n2)Sc2ccccc2N1 | > 100 µM (inactive) | > 100 µM (inactive) | > 100 µM (inactive) | 62.5 µM (inactive) | > 100 µM (inactive) | > 100 µM (inactive) | > 100 µM (inactive) | > 100 µM (inactive) | > 100 µM (inactive) | > 100 µM (inactive) | > 100 µM (inactive) | > 100 µM (inactive) | > 100 µM (inactive) | > 100 µM (inactive) | > 100 µM (inactive) | > 100 µM (inactive) |  |  | 
Cc1oc2nc(N(C)C)nc(NN)c2c1C | > 100 µM (inactive) | > 100 µM (inactive) |  | > 100 µM (inactive) | > 100 µM (inactive) | > 100 µM (inactive) | > 100 µM (inactive) | > 100 µM (inactive) | > 100 µM (inactive) | > 100 µM (inactive) | > 100 µM (inactive) |  | > 100 µM (inactive) | > 100 µM (inactive) | > 100 µM (inactive) | > 100 µM (inactive) | > 100 µM (inactive) | > 100 µM (inactive) | > 100 µM (inactive)
O=C1[C@H](Cl)[C@H]2c3cc4ccccc4nc3Oc3ccccc3N12 | 32.7 µM (inactive) | 75.9 µM (inactive) | 49.4 µM (inactive) | > 10 µM (inactive) | 24.3 µM (inactive) | 30.9 µM (inactive) | 48.4 µM (inactive) | 30.9 µM (inactive) | 76.9 µM (inactive) | > 100 µM (inactive) | 36.8 µM (inactive) | 36.7 µM (inactive) | 25.8 µM (inactive) | 35.1 µM (inactive) | 27.7 µM (inactive) | 21.8 µM (inactive) |  |  | 
c1ccc2c(c1)OCCOCCOc1ccccc1OCCO2 | 71.8 µM (inactive) | 79.6 µM (inactive) | 33.1 µM (inactive) | 28.4 µM (inactive) | 32.7 µM (inactive) | 68.2 µM (inactive) | 28.2 µM (inactive) | 34.4 µM (inactive) | 44.9 µM (inactive) | 26.9 µM (inactive) | 86.9 µM (inactive) | 51.9 µM (inactive) | > 100 µM (inactive) | > 100 µM (inactive) | 47.5 µM (inactive) | 62.4 µM (inactive) |  |  | 
CCN(CC)/C(=C\Cl)Nc1ccccn1.[O-][Cl+3]([O-])([O-])O | > 100 µM (inactive) | > 100 µM (inactive) | > 100 µM (inactive) | > 100 µM (inactive) | > 100 µM (inactive) | > 100 µM (inactive) | > 100 µM (inactive) | > 100 µM (inactive) | > 100 µM (inactive) | > 100 µM (inactive) | > 100 µM (inactive) | > 100 µM (inactive) | > 100 µM (inactive) | > 100 µM (inactive) | > 100 µM (inactive) | > 100 µM (inactive) |  |  | 
COc1nc(NC2OCC(OC(C)=O)C(OC(C)=O)C2OC(C)=O)c(-c2csc(N)n2)c(=O)n1C (stereo unspecified) | > 100 µM (inactive) | > 100 µM (inactive) | > 100 µM (inactive) | > 100 µM (inactive) | > 100 µM (inactive) | > 100 µM (inactive) | > 100 µM (inactive) | > 100 µM (inactive) | > 100 µM (inactive) | > 100 µM (inactive) | > 100 µM (inactive) | > 100 µM (inactive) | > 100 µM (inactive) | > 100 µM (inactive) | > 100 µM (inactive) | > 100 µM (inactive) |  |  | 
Cc1c(O)c(OC2OC(CO)C(O)C(O)C2O)cc2c1CC[C@@H]1C2(C)C(=O)C[C@]2(C)[C@@H]([C@@](C)(O)C3CCC(C)(C)O3)[C@H](O)C[C@@]12C (stereo partly specified) | > 100 µM (inactive) | > 100 µM (inactive) | > 100 µM (inactive) | > 100 µM (inactive) | > 100 µM (inactive) | > 100 µM (inactive) | > 100 µM (inactive) | > 100 µM (inactive) | > 100 µM (inactive) | > 100 µM (inactive) | > 100 µM (inactive) | > 100 µM (inactive) | > 100 µM (inactive) | > 100 µM (inactive) | > 100 µM (inactive) | > 100 µM (inactive) | > 100 µM (inactive) | > 100 µM (inactive) | 
COc1cc2c(c(OC)c1OC)-c1ccc(SC)c(=O)cc1C(CC(=O)Oc1ccc(F)cc1)C2 (stereo unspecified) | 0.605 µM (active) | 0.231 µM (active) | 0.392 µM (active) | 0.15 µM (active) | 0.116 µM (active) | 0.193 µM (active) | 0.134 µM (active) | 0.159 µM (active) | 0.172 µM (active) | 0.0918 µM (active) | 0.0625 µM (active) | 0.236 µM (active) | 0.622 µM (active) | 0.215 µM (active) | 0.436 µM (active) | 0.0359 µM (active) |  |  | 
O=C(N/C(=C\c1ccc(/C=C(\NC(=O)c2ccccc2)c2nc3cc(Cl)ccc3[nH]2)cc1)c1nc2cc(Cl)ccc2[nH]1)c1ccccc1 | 46 µM (inactive) | > 100 µM (inactive) | 87.9 µM (inactive) | 12 µM (inactive) | 13.6 µM (inactive) | 17.4 µM (inactive) | 22.4 µM (inactive) | 39.6 µM (inactive) | 26.9 µM (inactive) | 55 µM (inactive) | 25.6 µM (inactive) | 25.9 µM (inactive) | 11.8 µM (inactive) | 27.7 µM (inactive) | 3.89 µM (inactive) | 28.4 µM (inactive) |  |  | 
C=CCc1cccc2cc(C(=O)Nc3ccccn3)c(=N)oc12 | > 100 µM (inactive) | > 100 µM (inactive) |  | > 100 µM (inactive) |  | > 100 µM (inactive) | > 100 µM (inactive) | > 100 µM (inactive) | > 100 µM (inactive) | > 100 µM (inactive) | 28.7 µM (inactive) | > 100 µM (inactive) | > 100 µM (inactive) | > 100 µM (inactive) | > 100 µM (inactive) |  | 55.5 µM (inactive) | > 100 µM (inactive) | > 100 µM (inactive)
COc1cc(C2c3cc(O)c(OC)cc3C3OCC2C3CO)ccc1O (stereo unspecified) |  | > 100 µM (inactive) | > 100 µM (inactive) | > 100 µM (inactive) | > 100 µM (inactive) | > 100 µM (inactive) | > 100 µM (inactive) | > 100 µM (inactive) | > 100 µM (inactive) | > 100 µM (inactive) | > 100 µM (inactive) | > 100 µM (inactive) | > 100 µM (inactive) | > 100 µM (inactive) | > 100 µM (inactive) | > 100 µM (inactive) | > 100 µM (inactive) | > 100 µM (inactive) | 
COc1cc2c(cc1OC)[Se]c1cc(OC)c(OC)cc1[Se]2 | > 10 µM (inactive) | > 10 µM (inactive) | > 10 µM (inactive) | 6.64 µM (inactive) | 8.75 µM (inactive) | > 10 µM (inactive) | > 10 µM (inactive) | > 10 µM (inactive) | > 10 µM (inactive) | > 10 µM (inactive) | > 10 µM (inactive) | 80 µM (inactive) | > 10 µM (inactive) | > 10 µM (inactive) | > 100 µM (inactive) | 18.3 µM (inactive) |  |  | 
